# Assay results taken from ChEMBL document CHEMBL1150744, “Antifungal activity of Trillium grandiflorum constituents” (J Nat Prod, 1988).
# Key:
# Candida albicans [1] = assay: Antifungal activity against Candida albicans NIH B311 after 24 hrs by […]; type: functional; conditions: NIH B311, 24 h
# Candida albicans [2] = assay: Antifungal activity against Candida albicans ATCC 10231 by twofold serial broth dilution assay; type: functional
# Candida albicans [3] = assay: Antifungal activity against Candida albicans WH-D by twofold serial broth dilution assay; type: functional
# Cryptococcus neoformans = assay: Antifungal activity against Cryptococcus neoformans ATCC 32264 by twofold serial broth dilution assay; type: functional
# Saccharomyces cerevisiae = assay: Antifungal activity against Saccharomyces cerevisiae ATCC 9763 by twofold serial broth dilution assay; type: functional
# Aspergillus flavus = assay: Antifungal activity against Aspergillus flavus ATCC 9170 by twofold serial broth dilution assay; type: functional
# Aspergillus fumigatus = assay: Antifungal activity against Aspergillus fumigatus ATCC 26934 by twofold serial broth dilution assay; type: functional
# [4] = test system: Trichophyton mentagrophytes; assay: Antifungal activity against Trichophyton mentagrophytes ATCC 9972 by twofold serial broth dilution assay; type: functional
# [5] = Toxicity in ip dosed ICR mouse assessed as morbidity and lethality after 14 days; type: organism-based; conditions: in vivo
# [6] = Toxicity in iv dosed ICR mouse assessed as morbidity and lethality after 14 days; type: organism-based; conditions: in vivo
# Candida albicans [7] = assay: Antifungal activity against Candida albicans NIH B311 infected in ICR mouse assessed as reduction in number of recovered colony forming units at 0.5 mg/kg, ip administered after 7 hrs inoculation measured after 16 hrs; type: functional; parameters: scale not given: the % may be the effect or the level left; conditions: route intraperitoneal
SMILES,MIC (Candida albicans [1]) [µg/mL],MIC (Candida albicans [2]) [µg/mL],MIC (Candida albicans [3]) [µg/mL],MIC (Cryptococcus neoformans) [µg/mL],MIC (Saccharomyces cerevisiae) [µg/mL],MIC (Aspergillus flavus) [µg/mL],MIC (Aspergillus fumigatus) [µg/mL],MIC [4] [µg/mL],LD50 at 336 h [5] [mg/kg],LD50 at 336 h [6] [mg/kg],Activity (Candida albicans [7]) [%]
C[C@@H]1CC[C@@]2(OC1)O[C@H]1C[C@H]3[C@@H]4CC=C5C[C@@H](O[C@@H]6O[C@H](CO)[C@@H](O[C@@H]7O[C@@H](C)[C@H](O)[C@@H](O)[C@H]7O)[C@H](O)[C@H]6O[C@@H]6O[C@@H](C)[C@H](O)[C@@H](O)[C@H]6O)CC[C@]5(C)[C@H]4CC[C@]3(C)[C@H]1[C@@H]2C [DIOSCIN],1.56,3.12,6.25,25,25,100,50,6.25,38,10,
C[C@@H]1CC[C@@]2(OC1)O[C@H]1C[C@H]3[C@@H]4CC=C5C[C@@H](O[C@@H]6O[C@H](CO)[C@@H](O[C@@H]7O[C@@H](C)[C@H](O[C@@H]8O[C@@H](C)[C@H](O)[C@@H](O)[C@H]8O)[C@@H](O)[C@H]7O)[C@H](O)[C@H]6O[C@@H]6O[C@@H](C)[C@H](O)[C@@H](O)[C@H]6O)CC[C@]5(C)[C@H]4CC[C@]3(C)[C@H]1[C@@H]2C [PENNOGENIN RAHAMNOSYL CHACOTRIOSIDE],6.25,12.5,12.5,12.5,12.5,100,100,3.12,28,5,
C[C@@H]1[C@H](O)[C@@H](C)/C=C/C=C/C=C/C=C/C=C/C=C/C=C/[C@H](O[C@@H]2O[C@H](C)[C@@H](O)[C@H](N)[C@@H]2O)C[C@@H]2O[C@](O)(C[C@@H](O)C[C@@H](O)[C@H](O)CC[C@@H](O)C[C@@H](O)CC(=O)O[C@H]1C)C[C@H](O)[C@H]2C(=O)O [AMPHOTERICIN B],0.39,1.56,0.78,1.56,25,50,100,50,,1,97.5
